Where a name gives a salt, the structure may show the parent alone.
Columns and labels:
[1] = tested on: conA stimulated spleen cells (T lymphocytes) from female Balb/c mice; experiment: Assay B: Suppression of Mitogen-Stimulated Proliferation (Murine) (Culture Conditions II); assay type: cell-based, Murine (Balb/c mice); details: Mus musculus, T-lymphocyte, 72 h; conA 1 ug/ml, 10^5 cells per well, 3 days, MTT
Excerpt: Assay B: Suppression of Mitogen-Stimulated Proliferation(Murine)(Culture Conditions II.)
It is known that lymphocyte activation can be polyclonally stimulated by plant lectins and other mitogenic substances that induce blast transformation and mitosis. The plant lectin concanavalin A (conA) preferentially induces activation and proliferation of T lymphocytes. Exposure of T cells to conA results in polyclonal T cell activation, and this response can be used to determine the in vitro index of immunomodulatory effects of test compounds on pan-T cell activation. Spleen cells were harvested asceptically from female Balb/c mice, and cells were extruded by compression in phosphate buffered saline (pH 7.0). Cells were pelleted by centrifugation (300×g/5 min) and erythrocytes were lysed by resuspension of the splen cells in a hypotonic solution (5 ml per spleen) containing 0.14M NH4 Cl and 0.017M Tris base, pH 7.2, and incubation for 5 min. An equal volume of freshly prepared medium [lscovels modified Dulbecco's medium containing 2 mM L-glutamine, 5% heat inactivated (56° C./45 min) fetal bovine serum and 40 uM 2-mercaptoethanol] .was added to stop cell lysis. The remaining cells were pelleted, resuspended in medium, filtered through a cotton plug to remove debris, and the leukocytes were then counted. Leukocytes (10^5 cells per 10 ul per well) were incubated at 37° C. in a 95% air/[…] atmosphere in 96 well microtiter plates for 3 days. At the start of culture conA (1 ug/ml, SIGMA Chemical Co., St. Louis, Mo.) alone or in combination with test compound (0.0001-60 uM final) or vehicle control (0.6% DMSO or ethanol). All test compounds were dissolved in 95% ethanol or 100% DMSO, and subsequent dilutions were prepared in media. Inhibition of conA stimulated T cell proliferation was measured using a calorimetric indicator of cell growth and proliferation, MTT [3-(4,5-dimethylthiazol-2-yl)-2 diphenyltetrazolium bromide; 100 ul of a 1 mg/ml solution per well, SIGMA][Mosmann, T., 1988. J. Immunol. Methods 65, 55-63.]Cells were loaded with MTT dye at 37° C. for 4 hours; media supernatants were then aspirated from the cell pellets. MTT loaded cells were solubilized in isopropanol (150 ul per well). Light absorbance was measured at a test wavelength of 570 nm and a reference wavelength of 650 nm using a spectrophotometer. EC50 values for immunosuppressive compounds were estimated by four parameter logistical regression analysis of the optical density data [Delean, A., Munson, P. J. and D. Robard, 1978. Am,. J. Physiol. 235:397.

[2] = tested on: ConA-stimulated spleen cells (T-cells) from female Balb/c mice; experiment: Assay A: Suppression of Mitogen-Stimulated Proliferation (Murine) (Culture Conditions I); assay type: cell-based, Murine (Balb/c mice); details: Mus musculus, T-cell, 120 h; ConA 1.0 μg/ml, 10^5 cells/well, 5 days, MTT
Excerpt: Assay A: Suppression of Mitogen-Stimulated Proliferation (Murine)(Culture Conditions I)
Lymphocyte activation can be polyclonally stimulated by plant lectins and other mitogens that induce blast transformation and mitosis. Certain mitogens like Concanavalin A (ConA), preferentially activate T-lymphocytes. Exposure to ConA results in polyclonal activation of T-cells and can be used as an in vitro index for general immunomodulation of pan T-cell activity. In this assay spleen cells harvested from female Balb/c mice were incubated at 37° C., in 95% air/5% CO2 atmosphere in 96 well microtiter plates (10^5 cells/well) for 5 days with Iscove's modified Dulbecco's medium [25 mM HEPES […] L-glutamine, 5% fetal bovine serum and 2-mercaptoethanol (40 μM)], concanavalin A (ConA) alone (Sigma, St. Louis, Mo.; 1.0 μg/ml) or ConA in the presence of test compounds (0.001-25 μM). Inhibition of ConA-stimulated proliferation was measured by addition of the calorimetric indicator of growth metabolic activity or viability, MTT (3-(4,5-dimethylthiazol-2-yl)-2 diphenyl tetrazolium bromide; (100 μl/well, 1 mg/ml) Sigma) [Mosmann, T., J. of Immunological Methods, 65, 55-63, 1988]. After four hours, plates were centrifuged (1200 rpm) media supernatants aspirated and dye loaded cells were solubilized in isopropanol (150 μl/well). The absorbance was measured on an ELISA plate reader with a test wavelength of 570 nm and a reference of 630 nm. The IC50 values for active immunosuppressant compounds were calculated by four parameter logistic regression analysis of the results [Delean et al, Am. J. Physiol., 235, 397 (1978)].

[3] = tested on: human peripheral blood mononuclear cells; experiment: Assay C: One-Way Mixed Lymphocyte Reaction (Human); assay type: cell-based; details: mitomycin-C inactivated Raji stimulator cells, 120 hours, 3H-thymidine incorporation
Excerpt: Assay C: One-Way Mixed Lymphocyte Reaction (Human)
The mixed lymphocyte reaction (MLR) is an assay that measures T-cell activation and mitosis which occurs when lymphocytes from different major and minor histocompatibility complex (MHC) haplotypes are cocultured. This response is considered a "one-way MLR" when stimulator cells are made unresponsive by inhibition of DNA synthesis (treatment with mitomycin-C or gamma-irradiation) prior to coculture with responder cells. This assay can be used as an indicator of the cellular immunomodulation mechanisms involved in transplant rejection. In this assay, human peripheral blood mononuclear cells(PMNC) were used as the responder cell population and were isolated from normal donor blood as follows: Blood samples were collected in LeucoPREP™ tubes (Becton Dickinson, Lincoln Park, N.J.) and the mononuclear cell preparation was obtained by following the manufacturers procedures. Isolated mononuclear cells were co-incubated at 6×10^4 cells/well with a stimulator cell line at 2×10^4 cells/well in RPMI 1640 medium containing 5% fetal bovine serum and 2-mercaptoethanol (40 μM). The stimulator cell line, Raji, which was derived from a human Burkitt lymphoma (American Type Culture Collection, Rockville Md.) was previously inactivated by mitomycin-C treatment (Sigma, St. Louis Mo., 25 μg/ml, 37° for 30 minutes). After repeated washings of mitomycin-C from the stimulator cell line, cocultures were incubated in 96 well microtiter plates at 37° C., in 95% air/5% CO2 atmosphere for 120 hours in the presence or absence of test compounds (0.1-25 μM). Inhibition of proliferation was measured by reduced incorporation of ^3 H-thymidine (0.5 μCi/well, added during the last 24 hours of the assay). The IC50 values for the immunosuppressant compounds were calculated by four parameter logistic regression analysis of the results [Delean et al, Id.]

[4] = literature, Acta. Pharmacologica Sinica, 11(3), 281-285 (1990); cited from earlier work

CC(C)C(C#N)(CCCN(C)Cc1ccccc1)c1ccc(F)c(F)c1 (racemic) [Example 1, (±)-3,4-difluoro-α-(1-methylethyl)-α-[3-[methyl(phenylmethyl)amino]propyl]benzeneacetonitrile]
IC50 [1]: 2410 nM

CC(C)C(C#N)(CCCN(C)Cc1ccccc1)c1ccc(F)cc1 (racemic) [Example 2, (±)-4-fluoro-α-(1-methylethyl)-α-[3-[methyl (phenylmethyl)amino]propyl]benzeneacetonitrile, monohydrochloride]
IC50 [2]: 2200 nM
IC50 [1]: 5190 nM
IC50 [3]: 7200 nM

CC(C)C(C#N)(CCCN(C)CCc1ccccc1)c1ccc(F)cc1 (racemic) [Example 3, (±)-4-fluoro-α-(1-methylethyl)-α-[3-[methyl(2-phenylethyl)amino]propyl]benzeneacetonitrile, monohydrochloride]
IC50 [2]: 1000 nM
IC50 [1]: 3220 nM
IC50 [3]: 4800 nM

CN(CCCC(C#N)(c1ccc(F)cc1)C1CCCC1)Cc1ccccc1 (racemic) [Example 4, (±)-α-cyclopentyl-4-fluoro-α-[3-(methyl(phenylmethyl)amino]propyl]benzeneacetonitrile, monohydrochioride]
IC50 [2]: 3200 nM
IC50 [1]: 4810 nM
IC50 [3]: 2300 nM

CC(C)C(C#N)(CCCCN(C)Cc1ccccc1)c1ccc(F)cc1 (racemic) [Example 5, (±)-4-fluoro-α-(1-methylethyl)-α-[4-(methyl (phenylmethyl)amino]butyl]benzeneacetonitrile, monohydrochloride]
IC50 [2]: 900 nM
IC50 [1]: 1760 nM
IC50 [3]: 2100 nM

CC(C)C(C#N)(CCCCCN(C)Cc1ccccc1)c1ccc(F)cc1 (racemic) [Example 6, (±)-4-fluoro-α-(1-methylethyl)-α-[5-methyl(phenylmethyl)amino]pentyl]benzeneacetonitrile]
IC50 [2]: 500 nM
IC50 [1]: 930 nM

CC(C)C(C#N)(CCCN(C)Cc1ccccc1)c1ccccc1F (racemic) [Example 8, (±)-2-fluoro-α-(1-methylethyl)-α-[3-[methyl (phenylmethyl)amino]propyl]benzeneacetonitrile, monohydrochloride]
IC50 [2]: 1400 nM
IC50 [1]: 3350 nM
IC50 [3]: 2900 nM

CC(C)C(C#N)(CCCN(C)Cc1ccccc1)c1c(F)cccc1F (racemic) [Example 9, (±)-2,6-difluoro-α-(1-methylethyl)-α-[3-[methyl(phenylmethyl)amino]propyl]benzeneacetonitrile, monohydrochloride]
IC50 [1]: 4150 nM

CC(C)C(C#N)(CCCN(Cc1ccccc1)Cc1ccccc1)c1ccc(F)cc1 (racemic) [Example 10, (±)-α-[3-[bis(phenylmethyl)amino]propyl]-4-fluoro-α-(1-methylethyl)benzeneacetonitrile, monohydrochloride]
IC50 [1]: 13500 nM

COC(=O)C1=C(C)NC(C)=C(C(=O)OCCN(C)Cc2ccccc2)C1c1cccc([N+](=O)[O-])c1 (stereo not shown) [nicardipine]
acute and chronic antiinflammatory effects [4]: dose-dependent acute and chronic antiinflammatory effects

COC(=O)C1=C(C)NC(C)=C(C(=O)OC)C1c1ccccc1[N+](=O)[O-] [nifedipine]
acute and chronic antiinflammatory effects [4]: dose-dependent acute and chronic antiinflammatory effects
